What was measured:
synthetic Aβ(1-40) = target: T1, synthetic Aβ(1-40) (Homo sapiens, UniProt P05067); test: Competition of [3H]BTA-1 binding from synthetic Aβ(1-40); settings: for Ki: inhibition constant for competition of [3H]BTA-1 binding from synthetic Aβ(1-40), phosphate-buffered saline pH 7.4
T1 construct: host or cells: chemically synthesised peptide
Method: (§1) The characteristics of benzofuran derivative binding were analyzed using synthetic Aβ(1-40) and 2-(4′-[^3H]methylamino-phenyl)-benzothiazole ([^3H]BTA-1) in phosphate-buffered saline (pH 7.4) as previously described. Klunk et al., Life Sci. 69:1471 (2001); Mathis et al., Bioorg. Med. Chem. Lett., 12:295 (2002).
as §1, with “7.4),” for “7.4)”, “(2002). The table below lists the inhibition constants (Ki) of the four compounds shown for competition of [^3H]BTA-1 binding from synthetic Aβ(1-40).” for “(2002).”

[1] = Baboon brain entry study (PET); type: in vivo; settings: 40 kg baboon, 8 mCi intravenously, PET imaging over 2 h post injection
Method: A 40 kg baboon was anesthetized, immobilized, and placed on a ventilator. The baboon was positioned in a PET scanner to image the brain, and a transmission scan was performed to correct for attenuation. The baboon was injected intravenously with a solution containing 8 mCi of 5-Methoxy-2-(4′-fluorophenyl)benzofuran, and the brain was imaged in a series of increasing data collection time bins over 2 h post injection. Following data acquisition, the images were reconstructed and regions of interest were drawn. Decay and […] corrected time-activity curves (TAC) were generated for each of the regions to determine the quantitative time course of radioactivity in each brain region.

T1 sequence (P05067 672-711): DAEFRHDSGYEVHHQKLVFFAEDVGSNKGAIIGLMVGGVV

**Q.** For `Oc1ccc2oc(-c3ccc(F)cc3)cc2c1`, which Ki (synthetic Aβ(1-40)) is on record?
**A.** Its Ki is 27.7 nM.

**Q.** Which Ki (synthetic Aβ(1-40)) does the source give for `COc1ccc2cc(-c3ccc(F)cc3)oc2c1` here?
**A.** The Ki was 3.9 nM.

**Q.** For `Oc1ccc2cc(-c3ccc(F)cc3)oc2c1`, which Ki (synthetic Aβ(1-40)) is on record?
**A.** Its Ki is 96 nM.

**Q.** With `Oc1ccc2oc(-c3ccc(OCCCF)cc3)cc2c1` as the molecule, how does the Ki (synthetic Aβ(1-40)) read?
**A.** The Ki was 1.2 nM.

**Q.** Which Ki (synthetic Aβ(1-40)) does the source give for `Nc1ccc2oc(-c3ccc(F)cc3)cc2c1` here?
**A.** Its Ki is 28 nM.

**Q.** With `CNc1ccc2oc(-c3ccc(F)cc3)cc2c1` as the molecule, how does the Ki (synthetic Aβ(1-40)) read?
**A.** Its Ki is 2.8 nM.

**Q.** Which Ki (synthetic Aβ(1-40)) does the source give for `CN(C)c1ccc2oc(-c3ccc(F)cc3)cc2c1` here?
**A.** Its Ki is 2 nM.

**Q.** For `COc1ccc2oc(-c3ccc(F)cc3)cc2c1` [5-Methoxy-2-(4′-fluorophenyl)benzofuran], which “brain penetration of the radiotracer (time-activity curves)” value [1] is on record?
**A.** Its value is “excellent brain penetration”.

**Q.** And the “clearance of radioactivity from normal baboon brain (time-activity curves)” value [1]?
**A.** Its value is “rapid clearance”.

**Q.** What about the “affinity of the ligand in vitro for aggregated amyloid” value (synthetic Aβ(1-40); in vitro, in words) of the same molecule?
**A.** The value was “relatively high affinity”.

**Q.** With `COc1ccc2oc(-c3ccc(F)cc3)cc2c1` [drawing 23] as the molecule, how does the Ki (synthetic Aβ(1-40)) read?
**A.** Its Ki is 3.7 nM.
